Reference: ChEMBL document CHEMBL4052785, “Discovery of (R)-5-(benzo[d][1,3]dioxol-5-yl)-7-((1-(vinylsulfonyl)pyrrolidin-2-yl)methyl)-7H-pyrrolo[2,3-d]pyrimidin-4-amine (B6) as a potent Bmx inhibitor for the treatment of NSCLC” (Bioorg Med Chem Lett, 2017)
In brackets after ≈: the same amount, converted by molar mass.

Tests used:
[1] = target: Serine/threonine-protein kinase PLK1 (Homo sapiens, UniProt P53350); experiment: Inhibition of recombinant human N-terminal His6-tagged PLK1 expressed in baculovirus Sf21 insect cells preincubated for 5 mins followed by substrate addition after 30 to 60 mins in presence of ATP by fluorescence assay
[2] = target: Macrophage colony-stimulating factor 1 receptor (Homo sapiens, UniProt P07333); experiment: Inhibition of recombinant human N-terminal His6-tagged FMS (538 to end residues) expressed in baculovirus Sf21 insect cells preincubated for 5 mins followed by substrate addition after 30 to 60 mins in presence of ATP by fluorescence assay
[3] = target: Tyrosine-protein kinase JAK3 (Homo sapiens, UniProt P52333); experiment: Inhibition of recombinant human N-terminal His6-tagged JAK3 (781 to end residues) expressed in baculovirus Sf21 insect cells preincubated for 5 mins followed by substrate addition after 30 to 60 mins in presence of ATP by fluorescence assay
Homo sapiens [4] = organism: Homo sapiens; experiment: Selectivity ratio of IC50 for recombinant human full length N-terminal His6-tagged SRC to IC50 for human full length N-terminal His6-tagged BMX
[5] = target: Proto-oncogene tyrosine-protein kinase Src (Homo sapiens, UniProt P12931); experiment: Inhibition of recombinant human full length N-terminal His6-tagged SRC expressed in Sf21 insect cells preincubated for 5 mins followed by substrate addition after 30 to 60 mins in presence of ATP by fluorescence assay
[6] = target: Tyrosine-protein kinase FRK (Homo sapiens, UniProt P42685); experiment: Inhibition of recombinant human N-terminal His6-tagged FRK (218 to end residues) expressed in baculovirus Sf21 insect cells preincubated for 5 mins followed by substrate addition after 30 to 60 mins in presence of ATP by fluorescence assay
NCI-H1975 [7] = experiment: Antiproliferative activity against human NCI-H1975 cells harboring EGFR L858R/T790M mutant after 72 hrs by MTT assay; type: functional, cell-based; details: NCI-H1975, 72 h
Homo sapiens [8] = organism: Homo sapiens; experiment: Selectivity ratio of IC50 for recombinant human N-terminal His6-tagged TXK (256 to end residues) to IC50 for human full length N-terminal His6-tagged BMX
Homo sapiens [9] = organism: Homo sapiens; experiment: Selectivity ratio of IC50 for RSK1 (unknown origin) to IC50 for human full length N-terminal His6-tagged BMX
Homo sapiens [10] = organism: Homo sapiens; experiment: Selectivity ratio of IC50 for recombinant human N-terminal His6-tagged FMS (538 to end residues) to IC50 for human full length N-terminal His6-tagged BMX
Homo sapiens [11] = organism: Homo sapiens; experiment: Selectivity ratio of IC50 for recombinant human full length N-terminal GST-tagged CSK to IC50 for human full length N-terminal His6-tagged BMX
[12] = target: Receptor tyrosine-protein kinase erbB-2 (Homo sapiens, UniProt P04626); experiment: Inhibition of human C-terminal 6His-tagged Her2 (676 to end) expressed in baculovirus Sf21 insect cells preincubated for 5 mins followed by biotinyl-beta Abeta Abeta AAEEEEYFELVAKKK substrate addition after 30 to 60 mins in presence of ATP by fluorescence assay
[13] = Aqueous solubility of the compound at 1 mg; type: physicochemical
NCI-H1975 [14] = experiment: Antitumor activity against human NCI-H1975 cells xenografted in nude mouse assessed as tumor growth inhibition at 25 mg/kg administered via oral gavage qd measured every 2 days up to 18 days relative to control; type: functional; details: read-out: TGI
[15] = target: Ribosomal protein S6 kinase alpha-1 (Homo sapiens, UniProt Q15418); experiment: Inhibition of RSK1 (unknown origin) preincubated for 5 mins followed by substrate addition after 30 to 60 mins in presence of ATP by fluorescence assay
[16] = target: Receptor-type tyrosine-protein kinase FLT3 (Homo sapiens, UniProt P36888); experiment: Inhibition of recombinant human N-terminal GST-tagged FLT3 (564 to end residues) expressed in expressed in Sf21 cells preincubated for 5 mins followed by substrate addition after 30 to 60 mins in presence of ATP by fluorescence assay
Chain of Receptor-type tyrosine-protein kinase FLT3 (P36888 whole entry): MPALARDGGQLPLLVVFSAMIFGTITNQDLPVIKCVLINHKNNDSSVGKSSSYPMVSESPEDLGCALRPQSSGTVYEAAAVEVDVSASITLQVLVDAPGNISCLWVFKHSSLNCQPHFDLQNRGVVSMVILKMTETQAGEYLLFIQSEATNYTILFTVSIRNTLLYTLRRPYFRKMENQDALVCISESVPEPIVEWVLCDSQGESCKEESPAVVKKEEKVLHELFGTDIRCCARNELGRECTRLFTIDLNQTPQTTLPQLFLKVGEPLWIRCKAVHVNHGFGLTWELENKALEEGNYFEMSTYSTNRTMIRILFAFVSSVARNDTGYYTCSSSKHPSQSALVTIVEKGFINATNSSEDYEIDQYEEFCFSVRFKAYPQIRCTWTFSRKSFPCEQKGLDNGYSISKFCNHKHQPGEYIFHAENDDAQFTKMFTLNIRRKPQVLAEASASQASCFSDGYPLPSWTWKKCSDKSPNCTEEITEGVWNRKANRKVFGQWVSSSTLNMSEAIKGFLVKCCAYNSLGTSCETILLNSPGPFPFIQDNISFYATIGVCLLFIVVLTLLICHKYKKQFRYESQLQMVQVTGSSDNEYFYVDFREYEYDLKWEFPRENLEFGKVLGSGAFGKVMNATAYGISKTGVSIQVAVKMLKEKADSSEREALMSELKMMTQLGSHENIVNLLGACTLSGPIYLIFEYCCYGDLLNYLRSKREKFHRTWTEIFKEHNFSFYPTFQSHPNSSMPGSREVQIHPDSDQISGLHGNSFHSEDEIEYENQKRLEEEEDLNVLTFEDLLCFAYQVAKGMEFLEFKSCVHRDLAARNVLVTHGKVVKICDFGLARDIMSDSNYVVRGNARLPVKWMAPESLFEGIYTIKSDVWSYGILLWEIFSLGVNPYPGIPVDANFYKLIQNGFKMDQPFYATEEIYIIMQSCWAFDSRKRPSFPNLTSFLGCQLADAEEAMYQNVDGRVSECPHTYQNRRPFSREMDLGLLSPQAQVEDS

Chain of Tyrosine-protein kinase JAK3 (P52333 whole entry): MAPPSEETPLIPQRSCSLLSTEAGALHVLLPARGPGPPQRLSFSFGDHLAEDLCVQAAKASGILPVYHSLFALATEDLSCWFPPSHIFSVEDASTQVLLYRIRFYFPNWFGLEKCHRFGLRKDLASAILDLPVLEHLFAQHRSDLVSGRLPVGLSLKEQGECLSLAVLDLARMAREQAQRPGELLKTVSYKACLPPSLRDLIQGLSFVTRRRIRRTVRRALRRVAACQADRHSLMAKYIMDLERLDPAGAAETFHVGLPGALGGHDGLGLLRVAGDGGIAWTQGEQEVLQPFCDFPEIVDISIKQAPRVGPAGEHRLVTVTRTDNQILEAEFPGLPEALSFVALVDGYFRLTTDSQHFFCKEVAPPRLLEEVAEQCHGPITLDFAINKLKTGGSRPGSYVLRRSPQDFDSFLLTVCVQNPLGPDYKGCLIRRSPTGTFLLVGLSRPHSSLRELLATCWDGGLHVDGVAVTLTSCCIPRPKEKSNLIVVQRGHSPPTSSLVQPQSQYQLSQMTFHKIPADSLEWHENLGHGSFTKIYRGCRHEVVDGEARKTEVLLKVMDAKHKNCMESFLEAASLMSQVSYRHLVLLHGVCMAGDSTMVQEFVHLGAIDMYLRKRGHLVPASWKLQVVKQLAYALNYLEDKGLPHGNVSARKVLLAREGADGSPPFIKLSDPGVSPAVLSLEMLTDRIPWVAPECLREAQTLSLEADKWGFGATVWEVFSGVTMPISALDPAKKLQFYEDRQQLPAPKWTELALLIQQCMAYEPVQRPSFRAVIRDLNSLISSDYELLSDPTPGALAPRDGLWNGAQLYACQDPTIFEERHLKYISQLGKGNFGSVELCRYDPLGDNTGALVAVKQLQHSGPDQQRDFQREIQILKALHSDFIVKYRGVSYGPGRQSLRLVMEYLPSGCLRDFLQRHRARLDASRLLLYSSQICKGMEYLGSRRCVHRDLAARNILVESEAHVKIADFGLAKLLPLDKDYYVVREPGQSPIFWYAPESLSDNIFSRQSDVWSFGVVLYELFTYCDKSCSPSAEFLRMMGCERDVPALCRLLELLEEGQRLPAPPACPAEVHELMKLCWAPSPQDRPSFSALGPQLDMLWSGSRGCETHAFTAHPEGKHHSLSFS
Chain of Receptor tyrosine-protein kinase erbB-2 (P04626 whole entry): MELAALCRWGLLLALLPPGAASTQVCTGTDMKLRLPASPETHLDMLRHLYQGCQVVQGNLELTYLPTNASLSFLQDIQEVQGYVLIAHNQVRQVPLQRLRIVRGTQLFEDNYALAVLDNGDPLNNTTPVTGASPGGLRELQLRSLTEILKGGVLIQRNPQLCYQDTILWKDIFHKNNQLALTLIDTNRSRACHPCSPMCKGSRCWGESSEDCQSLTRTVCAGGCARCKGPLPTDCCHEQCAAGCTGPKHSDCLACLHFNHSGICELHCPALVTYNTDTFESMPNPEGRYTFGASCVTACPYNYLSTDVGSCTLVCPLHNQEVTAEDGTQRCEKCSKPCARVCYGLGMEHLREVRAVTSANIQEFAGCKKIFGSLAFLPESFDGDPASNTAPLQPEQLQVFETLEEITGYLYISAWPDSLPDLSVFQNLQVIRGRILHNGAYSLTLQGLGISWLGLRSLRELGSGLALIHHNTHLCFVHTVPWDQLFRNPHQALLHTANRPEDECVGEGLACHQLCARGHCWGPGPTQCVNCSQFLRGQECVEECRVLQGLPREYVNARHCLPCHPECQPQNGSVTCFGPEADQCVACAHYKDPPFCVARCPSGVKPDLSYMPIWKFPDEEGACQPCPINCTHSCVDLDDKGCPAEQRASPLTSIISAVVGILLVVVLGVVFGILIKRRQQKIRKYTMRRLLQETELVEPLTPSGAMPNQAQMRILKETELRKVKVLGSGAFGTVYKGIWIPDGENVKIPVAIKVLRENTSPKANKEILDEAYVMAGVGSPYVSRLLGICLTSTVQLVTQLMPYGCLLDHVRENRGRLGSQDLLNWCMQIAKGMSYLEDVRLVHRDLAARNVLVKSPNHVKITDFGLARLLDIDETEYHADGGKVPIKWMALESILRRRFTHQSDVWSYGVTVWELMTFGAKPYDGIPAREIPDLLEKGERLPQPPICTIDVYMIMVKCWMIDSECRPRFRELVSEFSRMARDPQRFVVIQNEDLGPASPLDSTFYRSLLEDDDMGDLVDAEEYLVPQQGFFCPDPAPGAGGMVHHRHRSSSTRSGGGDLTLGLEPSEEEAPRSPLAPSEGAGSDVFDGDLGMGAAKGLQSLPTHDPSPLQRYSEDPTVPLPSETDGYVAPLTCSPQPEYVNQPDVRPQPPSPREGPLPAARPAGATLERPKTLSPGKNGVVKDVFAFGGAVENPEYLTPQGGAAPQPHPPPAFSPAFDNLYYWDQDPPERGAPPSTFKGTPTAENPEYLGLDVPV
Chain of Serine/threonine-protein kinase PLK1 (P53350 whole entry): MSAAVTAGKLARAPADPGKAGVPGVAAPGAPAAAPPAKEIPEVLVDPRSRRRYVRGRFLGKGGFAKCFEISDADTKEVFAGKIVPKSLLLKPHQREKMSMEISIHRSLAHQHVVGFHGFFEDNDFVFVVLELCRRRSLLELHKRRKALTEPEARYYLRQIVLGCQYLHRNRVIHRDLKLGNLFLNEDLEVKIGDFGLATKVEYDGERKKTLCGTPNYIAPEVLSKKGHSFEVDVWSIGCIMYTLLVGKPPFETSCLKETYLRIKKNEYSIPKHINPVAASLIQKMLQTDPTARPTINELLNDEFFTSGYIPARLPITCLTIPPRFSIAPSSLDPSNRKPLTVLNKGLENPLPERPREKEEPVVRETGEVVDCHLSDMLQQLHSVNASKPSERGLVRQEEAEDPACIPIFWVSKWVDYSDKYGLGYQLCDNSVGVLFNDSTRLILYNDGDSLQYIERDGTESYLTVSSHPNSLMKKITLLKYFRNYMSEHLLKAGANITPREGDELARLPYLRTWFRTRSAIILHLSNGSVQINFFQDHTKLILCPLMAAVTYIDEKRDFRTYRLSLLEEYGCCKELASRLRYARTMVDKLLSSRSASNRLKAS
Chain of Macrophage colony-stimulating factor 1 receptor (P07333 whole entry): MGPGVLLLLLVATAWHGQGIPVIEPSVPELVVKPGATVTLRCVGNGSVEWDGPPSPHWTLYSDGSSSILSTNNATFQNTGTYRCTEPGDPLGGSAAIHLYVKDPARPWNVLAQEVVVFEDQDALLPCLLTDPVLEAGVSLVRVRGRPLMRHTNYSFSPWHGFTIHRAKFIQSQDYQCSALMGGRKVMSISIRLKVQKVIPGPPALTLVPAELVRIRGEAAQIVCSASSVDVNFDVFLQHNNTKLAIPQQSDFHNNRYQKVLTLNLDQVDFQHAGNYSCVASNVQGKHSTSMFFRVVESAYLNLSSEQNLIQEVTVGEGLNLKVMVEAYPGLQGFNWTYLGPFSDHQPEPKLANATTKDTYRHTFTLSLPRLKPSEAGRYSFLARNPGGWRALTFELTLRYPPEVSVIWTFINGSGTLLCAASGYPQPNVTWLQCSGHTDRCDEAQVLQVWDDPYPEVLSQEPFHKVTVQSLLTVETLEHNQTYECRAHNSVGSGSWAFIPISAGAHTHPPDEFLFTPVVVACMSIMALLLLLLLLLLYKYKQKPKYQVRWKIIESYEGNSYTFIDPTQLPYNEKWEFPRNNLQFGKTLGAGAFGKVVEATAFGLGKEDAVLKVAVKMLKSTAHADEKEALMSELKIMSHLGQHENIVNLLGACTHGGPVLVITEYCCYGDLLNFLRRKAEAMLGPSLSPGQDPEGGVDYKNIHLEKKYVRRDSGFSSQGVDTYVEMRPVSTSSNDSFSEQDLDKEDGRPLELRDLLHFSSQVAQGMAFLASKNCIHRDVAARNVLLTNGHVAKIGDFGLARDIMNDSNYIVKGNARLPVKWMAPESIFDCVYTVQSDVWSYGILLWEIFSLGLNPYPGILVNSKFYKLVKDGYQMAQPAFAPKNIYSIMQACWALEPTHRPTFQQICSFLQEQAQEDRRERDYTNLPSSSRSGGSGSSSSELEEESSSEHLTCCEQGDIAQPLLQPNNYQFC

Work on `C=CS(=O)(=O)N1CCC[C@@H]1Cn1cc(-c2ccc3c(c2)OCO3)c2c(N)ncnc21` yielded an IC50 [1] of over 10 µM, an IC50 [2] of 4.7 µM and an IC50 [3] of 8.16 µM. The Ratio IC50 (Homo sapiens [4]) was 5.5, the IC50 [5] was 0.197 µM and the IC50 [6] was 0.51 µM. For the same compound, the IC50 (NCI-H1975 [7]) was 0.92 µM, the Ratio IC50 (Homo sapiens [8]) was 25.7 and the Ratio IC50 (Homo sapiens [9]) was over 280. For the same compound, the Ratio IC50 (Homo sapiens [10]) was 114, the Ratio IC50 (Homo sapiens [11]) was 79.2 and the IC50 [12] was 1.35 µM. The solubility [13] was 100 µg/mL (≈ 234 µM), the inhibition in vivo at 25 mg/kg (NCI-H1975 [14]) was 73.9% and the IC50 [15] was over 10 µM. The IC50 [16] was 3.28 µM.
